pEC50, pIC50: −log10 of the molar value.
Legend:
[1] = biological target: T1, Ba/F3-TPR-MET-D1228N cells (Homo sapiens, UniProt P08581, D1228N, cells depend on it); assay: CellTiter-Glo Cell Viability Assay, Ba/F3-TPR-MET-D1228N; type: cell-based; conditions: 72 hours
T1 construct: fused on or other part: P12270 (Nucleoprotein TPR)
Method: (§1) Ba/F3-TPR-MET and Ba/F3-TPR-MET-D1228N cells were seeded at 3000 cells per well in a 96 well plate in 90 μL growth media and allowed to incubate overnight at 37° C. with 5% CO2. The following day, compounds were serially diluted from a 10 mM top dose for a 9-point 3-fold dilution curve in DMSO. Following a 100-fold dilution in growth media, a further 10-fold dilution was made into the cell plate for a final volume of 100 μL and 0.1% DMSO. Compounds and cells were incubated together for 72 hours at 37° C. with 5% CO2. The CellTiter-Glo® 2.0 Assay determines the number of viable cells in culture by quantifying ATP, which indicates the presence of metabolically active cells. Luminescence readout is directly proportional to the number of viable cells in culture. CellTiter-Glo reagent (Promega, G9243) and cell plates were allowed to equilibrate to room temperature for at least 15 min, then 100 μL of CellTiter-Glo was added to each well for a 1:1 ratio of reagent to media. Samples were placed on a shaker for 2 min prior to a 30 min incubation at room temperature protected from light. Luminescence was read on a Perkin Elmer Envision plate reader 2105 and used to calculate ICso values within the Dotmatics Knowledge Solutions Studies curve fitting environment (Dotmatics, Bishops Stortford, UK, CM23) and are presented in Table 2.

[2] = biological target: T2, MET (Homo sapiens, UniProt P08581); assay: MET Mobility Shift Assay; conditions: biochemical assay IC50; 100 μM ATP, 60 minute kinase reaction
T2 construct: purchased Carna Biosciences 08-151
T2 sequence (P08581 25-1390): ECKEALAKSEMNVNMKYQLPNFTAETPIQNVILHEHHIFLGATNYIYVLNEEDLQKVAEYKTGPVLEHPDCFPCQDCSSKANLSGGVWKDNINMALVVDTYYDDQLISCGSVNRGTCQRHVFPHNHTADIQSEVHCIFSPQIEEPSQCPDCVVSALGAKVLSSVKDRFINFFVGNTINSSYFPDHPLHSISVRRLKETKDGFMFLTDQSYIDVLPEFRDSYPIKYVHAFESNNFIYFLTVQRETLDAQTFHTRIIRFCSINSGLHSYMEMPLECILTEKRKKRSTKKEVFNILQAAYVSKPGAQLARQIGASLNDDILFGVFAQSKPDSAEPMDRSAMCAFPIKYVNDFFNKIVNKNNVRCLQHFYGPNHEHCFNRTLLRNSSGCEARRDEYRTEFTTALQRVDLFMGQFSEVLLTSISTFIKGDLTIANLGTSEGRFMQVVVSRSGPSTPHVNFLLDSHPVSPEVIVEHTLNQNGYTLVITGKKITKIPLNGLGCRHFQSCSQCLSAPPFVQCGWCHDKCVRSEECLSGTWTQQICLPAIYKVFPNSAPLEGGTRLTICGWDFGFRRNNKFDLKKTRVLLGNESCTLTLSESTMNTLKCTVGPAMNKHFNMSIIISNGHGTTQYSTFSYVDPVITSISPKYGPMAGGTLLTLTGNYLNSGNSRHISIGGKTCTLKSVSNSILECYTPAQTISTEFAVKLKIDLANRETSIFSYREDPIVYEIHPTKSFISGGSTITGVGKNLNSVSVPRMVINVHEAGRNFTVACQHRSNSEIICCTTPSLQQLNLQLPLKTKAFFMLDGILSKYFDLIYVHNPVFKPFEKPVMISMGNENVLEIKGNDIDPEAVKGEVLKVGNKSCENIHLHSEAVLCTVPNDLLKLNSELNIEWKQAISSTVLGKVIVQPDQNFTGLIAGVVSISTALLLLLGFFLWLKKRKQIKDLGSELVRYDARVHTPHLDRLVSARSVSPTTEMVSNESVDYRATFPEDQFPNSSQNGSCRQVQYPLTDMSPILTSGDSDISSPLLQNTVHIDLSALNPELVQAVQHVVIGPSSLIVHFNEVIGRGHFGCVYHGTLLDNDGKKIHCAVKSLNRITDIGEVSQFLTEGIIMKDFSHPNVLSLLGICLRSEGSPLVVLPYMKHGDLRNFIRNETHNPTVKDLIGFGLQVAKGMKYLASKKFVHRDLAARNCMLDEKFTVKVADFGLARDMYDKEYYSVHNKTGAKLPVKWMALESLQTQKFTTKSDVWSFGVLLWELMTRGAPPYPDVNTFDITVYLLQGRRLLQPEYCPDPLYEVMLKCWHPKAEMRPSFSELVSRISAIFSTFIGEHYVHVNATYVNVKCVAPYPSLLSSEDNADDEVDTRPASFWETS
Method: (§2) Small molecule inhibition of MET kinase activity was evaluated using a fluorescence-based microfluidic mobility shift assay. MET catalyzes the production of ADP from ATP during phosphoryl transfer to the substrate peptide, FLPeptide30 (5-FAM-KKKKEEIYFFF-CONH2) (Perkin Elmer, 760430). MET enzme (Carna Biosciences, 08-151) at 0.625 nM was prepared with 10 mM MgCl2 and 1.5 μM substrate peptide in a buffer containing 50 mM HEPES, 1 mM EGTA, 0.01% Brij-35, 0.05% BSA, and 2 mM DTT and pre-incubated at room temperature for 30 min prior to the start of the reaction. 100 μM ATP was added to start the reaction. The mobility shift assay electrophoretically separates the fluorescently labeled peptides (substrate and phosphorylated product) following the 60 minute kinase reaction. The reaction was terminated by addition of 0.5 M EDTA. Both substrate and product were measured and the ratio of these values used to generate % conversion of substrate to product by the LabChip EZ reader (Perkin Elmer). ICso values were calculated using the inhibition of conversion ratio using Dotmatics Knowledge Solutions Studies curve fitting environment (Dotmatics, Bishops Stortford, UK, CM23) and are presented in Table 2.

[3] = biological target: T3, MET D1228N (Homo sapiens, UniProt P08581, D1228N); assay: MET D1228N Mobility Shift Assay; conditions: biochemical assay IC50; 100 μM ATP, 60 minute kinase reaction
T3 construct: purchased Signalchem M52-12IG
Method: as §2, with “MET D1228N” for “MET”, “a fluorescence -based” for “a fluorescence-based”, “FLPeptide30 (5-FAM-KKKKEEIYFFF -CONH2)” for “FLPeptide30 (5-FAM-KKKKEEIYFFF-CONH2)”, “MET D1228N enzyme (Signalchem, M52-12IG)” for “MET enzme (Carna Biosciences, 08-151)”, “at 0.313” for “at 0.625”

[4] = biological target: T4, Ba/F3-TPR-MET cells (Homo sapiens, UniProt P08581); assay: CellTiter-Glo Cell Viability Assay, Ba/F3-TPR-MET; type: cell-based; conditions: 72 hours
T4 construct: fused on or other part: P12270 (Nucleoprotein TPR)
T4 sequence (P08581 whole entry, change not shown, the tested form may be a part): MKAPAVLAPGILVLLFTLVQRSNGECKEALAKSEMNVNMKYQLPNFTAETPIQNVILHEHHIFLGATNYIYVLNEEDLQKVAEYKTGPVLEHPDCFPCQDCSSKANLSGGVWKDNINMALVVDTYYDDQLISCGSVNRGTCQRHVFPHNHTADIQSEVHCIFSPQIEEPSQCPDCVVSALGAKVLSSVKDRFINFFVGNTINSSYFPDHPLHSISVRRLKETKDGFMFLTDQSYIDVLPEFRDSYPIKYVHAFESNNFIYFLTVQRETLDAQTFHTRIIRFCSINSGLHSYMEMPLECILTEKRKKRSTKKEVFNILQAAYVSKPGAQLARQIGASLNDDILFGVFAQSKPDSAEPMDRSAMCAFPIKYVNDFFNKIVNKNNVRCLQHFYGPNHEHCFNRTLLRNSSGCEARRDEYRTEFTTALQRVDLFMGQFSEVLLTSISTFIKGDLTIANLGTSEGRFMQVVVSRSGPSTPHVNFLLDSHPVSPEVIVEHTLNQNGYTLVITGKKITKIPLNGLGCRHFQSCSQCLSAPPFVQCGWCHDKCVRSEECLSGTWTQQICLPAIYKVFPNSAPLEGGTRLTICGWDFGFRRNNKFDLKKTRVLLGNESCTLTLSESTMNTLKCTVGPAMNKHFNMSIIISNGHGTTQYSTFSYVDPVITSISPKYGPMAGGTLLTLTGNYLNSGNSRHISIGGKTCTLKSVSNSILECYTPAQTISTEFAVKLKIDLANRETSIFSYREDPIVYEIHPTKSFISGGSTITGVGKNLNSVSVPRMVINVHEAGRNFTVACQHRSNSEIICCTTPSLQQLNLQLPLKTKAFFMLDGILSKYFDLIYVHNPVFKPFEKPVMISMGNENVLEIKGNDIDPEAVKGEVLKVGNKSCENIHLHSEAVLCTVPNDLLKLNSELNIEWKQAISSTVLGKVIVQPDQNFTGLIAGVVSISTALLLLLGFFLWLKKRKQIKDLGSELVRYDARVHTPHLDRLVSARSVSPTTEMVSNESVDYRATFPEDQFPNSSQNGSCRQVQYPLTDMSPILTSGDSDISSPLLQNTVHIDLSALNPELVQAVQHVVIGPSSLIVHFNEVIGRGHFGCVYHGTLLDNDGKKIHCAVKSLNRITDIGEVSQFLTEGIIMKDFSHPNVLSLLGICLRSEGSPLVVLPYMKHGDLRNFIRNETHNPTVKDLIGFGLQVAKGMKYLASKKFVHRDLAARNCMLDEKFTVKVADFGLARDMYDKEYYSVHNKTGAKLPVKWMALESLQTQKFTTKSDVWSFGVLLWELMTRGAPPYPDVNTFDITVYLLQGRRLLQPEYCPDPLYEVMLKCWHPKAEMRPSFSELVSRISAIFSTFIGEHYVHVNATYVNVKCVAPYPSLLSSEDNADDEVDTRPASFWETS
Method: as §1

T1 sequence (P08581 whole entry D1228N, the tested form may be a part): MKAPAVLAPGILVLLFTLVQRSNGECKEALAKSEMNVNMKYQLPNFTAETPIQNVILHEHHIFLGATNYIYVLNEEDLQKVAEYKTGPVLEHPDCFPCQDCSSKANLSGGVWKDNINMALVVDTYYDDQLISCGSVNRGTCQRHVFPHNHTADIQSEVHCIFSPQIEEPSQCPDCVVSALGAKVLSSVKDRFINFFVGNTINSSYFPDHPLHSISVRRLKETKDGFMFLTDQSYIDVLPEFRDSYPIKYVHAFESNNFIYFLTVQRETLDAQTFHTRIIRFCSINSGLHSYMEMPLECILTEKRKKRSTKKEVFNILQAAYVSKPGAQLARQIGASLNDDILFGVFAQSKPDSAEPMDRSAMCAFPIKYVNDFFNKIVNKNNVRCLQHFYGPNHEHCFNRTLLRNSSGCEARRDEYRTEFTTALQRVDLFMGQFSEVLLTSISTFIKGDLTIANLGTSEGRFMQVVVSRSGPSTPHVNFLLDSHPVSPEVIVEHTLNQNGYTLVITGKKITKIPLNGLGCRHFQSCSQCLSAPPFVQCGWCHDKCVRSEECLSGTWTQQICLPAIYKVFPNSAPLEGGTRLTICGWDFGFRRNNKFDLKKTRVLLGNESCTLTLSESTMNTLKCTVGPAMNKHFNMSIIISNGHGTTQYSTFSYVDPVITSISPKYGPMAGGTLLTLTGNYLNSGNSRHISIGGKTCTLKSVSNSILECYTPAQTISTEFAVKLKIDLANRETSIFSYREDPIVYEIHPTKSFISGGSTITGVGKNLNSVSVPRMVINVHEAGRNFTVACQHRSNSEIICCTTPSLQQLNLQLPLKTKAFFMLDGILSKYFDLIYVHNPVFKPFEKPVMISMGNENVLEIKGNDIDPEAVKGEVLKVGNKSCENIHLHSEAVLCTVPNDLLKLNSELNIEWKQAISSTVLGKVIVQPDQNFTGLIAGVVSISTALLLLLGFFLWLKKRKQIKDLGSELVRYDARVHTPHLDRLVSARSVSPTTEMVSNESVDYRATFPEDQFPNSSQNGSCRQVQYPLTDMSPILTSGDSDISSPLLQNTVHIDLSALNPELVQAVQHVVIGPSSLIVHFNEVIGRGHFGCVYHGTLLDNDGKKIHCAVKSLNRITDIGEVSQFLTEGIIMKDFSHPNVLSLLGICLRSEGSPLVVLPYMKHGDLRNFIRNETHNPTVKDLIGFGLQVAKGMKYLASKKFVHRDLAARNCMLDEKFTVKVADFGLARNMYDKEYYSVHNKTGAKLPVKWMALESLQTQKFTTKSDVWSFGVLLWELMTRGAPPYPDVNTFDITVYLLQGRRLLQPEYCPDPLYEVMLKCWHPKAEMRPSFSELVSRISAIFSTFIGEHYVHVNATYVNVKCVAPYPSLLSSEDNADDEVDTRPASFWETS

`CNCCOc1cc2nccc(Oc3c(F)cc(NC(=O)c4cnccc4OC[C@H](C)O)cc3F)c2cc1OC` [Example 64, (S)-N-(3,5-difluoro-4-((6-methoxy-7-(2-(methylamino)ethoxy)quinolin-4-yl)oxy)phenyl)-4-(2-hydroxypropoxy)pyridine-3-carboxamide] gave a pEC50 [1] of 6.00 to 7.00, a pIC50 [2] of no less than 7.00 and a pIC50 [3] of no less than 7.00. It also gave a pEC50 [4] of 6.00 to 7.00.

For `COc1cc2nccc(Oc3c(F)cc(NC(=O)c4cnccc4OC)cc3F)c2cc1OC[C@H](C)O` [Example 123, (S)-N-(3,5-difluoro-4-{[6-(2-hydroxypropoxy)-7-methoxyquinolin-4-yl]oxy}phenyl)-4-methoxypyridine-3-carboxamide], the pEC50 [1] was no less than 7.00, the pIC50 [2] was no less than 7.00 and the pIC50 [3] was no less than 7.00. It also gave a pEC50 [4] of no less than 7.00.

Compound `COc1cc2c(Oc3c(F)cc(NC(=O)c4cnccc4OC)cc3F)ccnc2cc1OC(F)F` [Example 38, N-(4-((7-(difluoromethoxy)-6-methoxyquinolin-4-yl)oxy)-3,5-difluorophenyl)-4-methoxypyridine-3-carboxamide] has a pEC50 [1] of less than 5.00, a pIC50 [2] of no less than 7.00 and a pIC50 [3] of no less than 7.00. The pEC50 [4] was less than 5.00.

`CNCCOc1cc2nccc(Oc3c(F)cc(NC(=O)c4cnccc4OC)cc3Cl)c2cc1OC` [Example 6, N-(3-chloro-5-fluoro-4-((6-methoxy-7-(2-(methylamino)ethoxy)quinolin-4-yl)oxy)phenyl)-4-methoxypyridine-3-carboxamide] gave a pEC50 [1] of 6.00 to 7.00, a pIC50 [2] of no less than 7.00 and a pIC50 [3] of no less than 7.00. It also gave a pEC50 [4] of 6.00 to 7.00.

Work on `COc1cc2nccc(Oc3c(F)cc(NC(=O)c4cnccc4OC)c(F)c3F)c2cc1O[C@@H](C)CO` [Example 133, (S)-4-methoxy-N-(2,3,5-trifluoro-4-((6-((1-hydroxypropan-2-yl)oxy)-7-methoxyquinolin-4-yl)oxy)phenyl)nicotinamide] yielded a pEC50 [1] of no less than 7.00, a pIC50 [2] of no less than 7.00 and a pIC50 [3] of no less than 7.00. The pEC50 [4] was no less than 7.00.

`COc1ccc2c(Oc3c(F)cc(NC(=O)c4cnccc4OC)cc3F)ccnc2c1` [Example 35, N-{3,5-difluoro-4-[(7-methoxyquinolin-4-yl)oxy]phenyl}-4-methoxypyridine-3-carboxamide] gave a pEC50 [1] of 6.00 to 7.00, a pIC50 [2] of no less than 7.00 and a pIC50 [3] of no less than 7.00. The pEC50 [4] was 6.00 to 7.00.

In the case of `CNCCOc1cc2nccc(Oc3ccc(NC(=O)c4cnccc4OC(F)F)c(F)c3F)c2cc1OC` [Example 48, N-[2,3-difluoro-4-({6-methoxy-7-[2-(methylamino)ethoxy]quinolin-4-yl}oxy)phenyl]-4-(difluoromethoxy)pyridine-3-carboxamide], the pIC50 [2] was no less than 7.00 and the pIC50 [3] was no less than 7.00.

Compound `CCOc1ccncc1C(=O)Nc1cc(F)c(Oc2ccnc3cc(OCCNC)ccc23)c(F)c1` [Example 11, N-(3,5-difluoro-4-((7-(2-(methylamino)ethoxy)quinolin-4-yl)oxy)phenyl)-4-ethoxypyridine-3-carboxamide] has a pIC50 [2] of no less than 7.00 and a pIC50 [3] of no less than 7.00.

Compound `CNCCOc1cc2nccc(Oc3ccc(NC(=O)c4cnccc4OC4CC4)c(F)c3F)c2cc1OC` [Example 83, 4-cyclopropoxy-N-[2,3-difluoro-4-({6-methoxy-7-[2-(methylamino)ethoxy]quinolin-4-yl}oxy)phenyl]pyridine-3-carboxamide] has a pIC50 [2] of no less than 7.00 and a pIC50 [3] of no less than 7.00.

For `CNCCOc1cc2nccc(Oc3cc(F)c(NC(=O)c4cnc(Cl)cc4OC)cc3F)c2cc1OC` [Example 26, 6-chloro-N-[2,5-difluoro-4-({6-methoxy-7-[2-(methylamino)ethoxy]quinolin-4-yl}oxy)phenyl]-4-methoxypyridine-3-carboxamide], the pIC50 [2] was no less than 7.00 and the pIC50 [3] was no less than 7.00.

`CNCCOc1cc2nccc(Oc3ccc(NC(=O)c4cnc(N)cc4OC)c(F)c3F)c2cc1OC` [Example 33, 6-amino-N-[2,3-difluoro-4-({6-methoxy-7-[2-(methylamino)ethoxy]quinolin-4-yl}oxy)phenyl]-4-methoxypyridine-3-carboxamide] gave a pIC50 [2] of no less than 7.00 and a pIC50 [3] of no less than 7.00.
